According to patent publication US20240041042A1, “1-(PYRIDYL)-5-AZINYLPYRAZOLE DERIVATIVES, AND THEIR USE FOR CONTROL OF UNDESIRED PLANT GROWTH” (Bayer Aktiengesellschaft, priority 2020, published 2024):
Where two headings read alike, the source gives them in different places.

Tests used:
Assay type in all cases: in vivo
Zea mays (ZEAMX) [1] = details: for Post-emergence action against ZEAMX in %: crop plant compatibility, 80 g/ha, effect vs untreated controls
How it was run: (§1)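 Percent effect on the crop was judged by eye against untreated controls, where 0% means like control and 100% means dead plants. Plants had been sprayed post-emergence at the one-leaf stage and then kept under optimum greenhouse conditions for about 3 weeks.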

Oryza sativa (ORYSA) = details: crop plant compatibility
How it was run: as §1

[2] = system: Digitaria sanguinalis (DIGSA); assay: Pre-emergence herbicidal action against DIGSA
Description: (§2) Seeds of monocotyledonous and dicotyledonous weed plants and crop plants are placed in plastic or organic planting pots and covered with soil. The compounds of the invention, formulated in the form of wettable powders (WP) or as emulsion concentrates (EC), are then applied to the surface of the covering soil as aqueous suspension or emulsion with addition of 0.5% additive at a water application rate equivalent to 600 l/ha. After the treatment, the pots are placed in a greenhouse and kept under good growth conditions for the trial plants. After about 3 weeks, the effect of the preparations is scored visually in comparison with untreated controls as percentages. For example, 100% activity=the plants have died, 0% activity=like control plants.
Tables A1 to A13 below show the effects of selected compounds of the general formula (I) on various harmful plants and at an application rate corresponding to 320 g/ha or lower, which were obtained by the experimental procedure mentioned above. The appendices “a”, “b” and “c” give differentiation by dosage used with otherwise the same harmful plants tested.

Zea mays (ZEAMX) [3] = details: pre-emergence, 80 g/ha, crop plant compatibility, in comparison to untreated controls
Description: as §2
The observed effects on selected crop plants are reported here in comparison to the untreated controls (values in %). The appendices “a” “b” and “c” give differentiation by dosage used with otherwise the same crop plants tested.

[4] = system: Alopecurus myosuroides (ALOMY); assay: Post-emergence herbicidal action against ALOMY; details: visual rating about 3 weeks after treatment vs untreated controls (100% = plants have died, 0% = like control plants)
How it was run: (§3)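 Values are percent visual activity (0% like control, 100% plants dead) after about 3 weeks in the greenhouse. Treatment: post-emergence spray at one-leaf stage, 600 l/ha spray volume, 0.5% additive, doses 320 g/ha or lower.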

[5] = system: Amaranthus retroflexus (AMARE); assay: Pre-emergence herbicidal action against AMARE; details: 320 g/ha, visual scoring after about 3 weeks vs untreated controls
How it was run: (§4)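 Pre-emergence soil-surface spray, WP/EC formulation, 0.5% additive, 600 l/ha water, rates of 320 g/ha or lower. Greenhouse, ~3 wk. Visual score, % of untreated control (100% = plants dead, 0% = like control).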

Lolium rigidum (LOLRI) [6] = assay: Pre-emergence herbicidal action against LOLRI
How it was run: as §4

Viola tricolor (VIOTR) [7] = assay: Post-emergence herbicidal action against VIOTR
How it was run: as §3

Avena fatua (AVEFA) [8] = assay: Post-emergence herbicidal action against AVEFA; details: visual rating about 3 weeks after treatment
How it was run: as §3

[9] = system: Alopecurus myosuroides (ALOMY); assay: Pre-emergence herbicidal action against ALOMY; details: 320 g/ha; scored visually after about 3 weeks; 100% = plants have died
How it was run: as §4

[10] = system: Polygonum convolvulus (POLCO); assay: Pre-emergence herbicidal action against POLCO; details: dosage 320 g/ha
How it was run: as §4

[11] = system: Polygonum convolvulus (POLCO); assay: Post-emergence herbicidal action against POLCO; details: dosage 320 g/ha
How it was run: as §3

Lolium rigidum (LOLRI) [12] = assay: Post-emergence herbicidal action against LOLRI
How it was run: as §3

[13] = system: Pharbitis purpurea (PHBPU); assay: Post-emergence herbicidal action against PHBPU
How it was run: as §3

[14] = system: Amaranthus retroflexus (AMARE); assay: Post-emergence herbicidal action against AMARE
How it was run: as §3

[15] = system: Digitaria sanguinalis (DIGSA); assay: Post-emergence herbicidal action against DIGSA; details: visual rating about 3 weeks after treatment
How it was run: as §3

[16] = system: Echinochloa crus-galli (ECHCG); assay: Post-emergence herbicidal action against ECHCG
How it was run: as §3

Setaria viridis (SETVI) [17] = assay: Post-emergence herbicidal action against SETVI
How it was run: as §3

[18] = system: Matricaria inodora (MATIN); assay: Pre-emergence herbicidal action against MATIN; details: dosage 320 g/ha
How it was run: as §4

[19] = system: Matricaria inodora (MATIN); assay: Post-emergence herbicidal action against MATIN; details: dosage 320 g/ha
How it was run: as §3

[20] = system: Verconica persica (VERPE); assay: Pre-emergence herbicidal action against VERPE; details: dosage 320 g/ha
How it was run: as §4

Setaria viridis (SETVI) [21] = assay: Pre-emergence herbicidal action against SETVI
How it was run: as §4

[22] = system: Pharbitis purpurea (PHBPU); assay: Pre-emergence herbicidal action against PHBPU; details: dosage 320 g/ha
How it was run: as §4

[23] = system: Verconica persica (VERPE); assay: Post-emergence herbicidal action against VERPE
How it was run: as §3

[24] = system: Abutilon theophrasti (ABUTH); assay: Post-emergence herbicidal action against ABUTH; details: visual rating about 3 weeks after treatment vs untreated controls (100% = plants have died, 0% = like control plants)
How it was run: as §3

[25] = system: Echinochloa crus-galli (ECHCG); assay: Pre-emergence herbicidal action against ECHCG; details: dosage 320 g/ha
How it was run: as §4

Viola tricolor (VIOTR) [26] = assay: Pre-emergence herbicidal action against VIOTR
How it was run: as §4

Avena fatua (AVEFA) [27] = assay: Pre-emergence herbicidal action against AVEFA; details: 320 g/ha, visual scoring after about 3 weeks vs untreated controls
How it was run: as §4

[28] = 80 g/ha, effect in comparison to untreated controls
[29] = 320 g/ha, visual rating about 3 weeks after treatment
[30] = 80 g/ha, visual scoring after about 3 weeks vs untreated controls

In the case of COC(=O)[C@@H](C)Oc1nn(-c2ccccn2)c(-c2ccc(Cl)nc2)c1Cl [Example I-237], the “Post-emergence action against ZEAMX in %” value (Zea mays (ZEAMX) [1]) is reported as 10%, the “Post-emergence action against ORYSA in %” value (Oryza sativa (ORYSA); [28]) is reported as 0% and the “Post-emergence action against ORYSA in %” value (Oryza sativa (ORYSA); 320 g/ha, effect in comparison to untreated controls) is reported as 20%. For the same compound, the “Pre-emergence action against DIGSA in %” value ([2]; dosage 320 g/ha) was 90%, the “Pre-emergence action against ZEAMX in %” value (Zea mays (ZEAMX) [3]) was 0% and the “Post-emergence action against ALOMY in %” value ([4]; 320 g/ha) was 80%. For the same compound, the “Pre-emergence action against AMARE in %” value [5] was 100%, the “Pre-emergence action against LOLRI in %” value (Lolium rigidum (LOLRI) [6]; dosage 320 g/ha) was 90% and the “Post-emergence action against VIOTR in %” value (Viola tricolor (VIOTR) [7]; 320 g/ha) was 80%. For the same compound, the “Post-emergence action against AVEFA in %” value (Avena fatua (AVEFA) [8]; 320 g/ha) was 80%, the “Pre-emergence action against ALOMY” value [9] was 90% and the “Pre-emergence action against POLCO in %” value [10] was 80%. For the same compound, the “Post-emergence action against POLCO in %” value [11] was 80%, the “Post-emergence action against LOLRI in %” value (Lolium rigidum (LOLRI) [12]; dosage 320 g/ha) was 80% and the “Post-emergence action against PHBPU in %” value ([13]; dosage 80 g/ha) was 80%. For the same compound, the “Post-emergence action against PHBPU in %” value ([13]; dosage 320 g/ha) was 90%, the “Post-emergence action against AMARE in %” value [14, 29] was 90% and the “Post-emergence action against DIGSA in %” value ([15]; 320 g/ha) was 90%.

With CCOC(=O)COc1nn(-c2nc(F)ccc2F)c(-c2ccc(F)nc2)c1C1CC1 [Example I-348] the “Post-emergence action against ECHCG in %” value ([16]; dosage 80 g/ha) was 90%, the “Post-emergence action against ECHCG in %” value ([16]; dosage 320 g/ha) was 90% and the “Post-emergence action against SETVI in %” value (Setaria viridis (SETVI) [17]; dosage 80 g/ha) was 80%. The “Post-emergence action against SETVI in %” value (Setaria viridis (SETVI) [17]; dosage 320 g/ha) was 90%, the “Post-emergence action against ZEAMX in %” value (Zea mays (ZEAMX) [1]) was 20% and the “Post-emergence action against ORYSA in %” value (Oryza sativa (ORYSA); [28]) was 0%. For the same compound, the “Pre-emergence action against DIGSA in %” value [2, 30] was 90%, the “Pre-emergence action against DIGSA in %” value ([2]; dosage 320 g/ha) was 100% and the “Pre-emergence action against MATIN in %” value [18] was 90%. The “Post-emergence action against MATIN in %” value [19] was 80%, the “Pre-emergence action against VERPE in %” value [20] was 90% and the “Pre-emergence action against SETVI in %” value (Setaria viridis (SETVI) [21]; dosage 80 g/ha) was 80%. The “Pre-emergence action against SETVI in %” value (Setaria viridis (SETVI) [21]; dosage 320 g/ha) was 100%, the “Post-emergence action against ALOMY in %” value ([4]; 80 g/ha) was 80% and the “Post-emergence action against ALOMY in %” value ([4]; 320 g/ha) was 90%. For the same compound, the “Pre-emergence action against PHBPU in %” value [22] was 90%, the “Pre-emergence action against AMARE in %” value [5] was 90% and the “Pre-emergence action against LOLRI in %” value (Lolium rigidum (LOLRI) [6]; dosage 80 g/ha) was 90%. For the same compound, the “Pre-emergence action against LOLRI in %” value (Lolium rigidum (LOLRI) [6]; dosage 320 g/ha) was 100%, the “Post-emergence action against VIOTR in %” value (Viola tricolor (VIOTR) [7]; 80 g/ha) was 80% and the “Post-emergence action against VIOTR in %” value (Viola tricolor (VIOTR) [7]; 320 g/ha) was 80%. For the same compound, the “Post-emergence action against VERPE in %” value ([23]; 320 g/ha, VERPE) was 80%, the “Post-emergence action against VERPE in %” value ([23]; dosage 80 g/ha) was 80% and the “Post-emergence action against AVEFA in %” value (Avena fatua (AVEFA) [8]; 80 g/ha) was 80%. For the same compound, the “Post-emergence action against AVEFA in %” value (Avena fatua (AVEFA) [8]; 320 g/ha) was 80%, the “Pre-emergence action against ALOMY” value [9] was 80% and the “Post-emergence action against ABUTH in %” value ([24]; 320 g/ha) was 80%. For the same compound, the “Post-emergence action against POLCO in %” value [11] was 80%, the “Post-emergence action against LOLRI in %” value (Lolium rigidum (LOLRI) [12]; dosage 80 g/ha) was 80% and the “Post-emergence action against LOLRI in %” value (Lolium rigidum (LOLRI) [12]; dosage 320 g/ha) was 80%. The “Pre-emergence action against ECHCG in %” value [25] was 90%, the “Pre-emergence action against VIOTR in %” value (Viola tricolor (VIOTR) [26]; 320 g/ha, Viola tricolor) was 90% and the “Pre-emergence action against VIOTR in %” value (Viola tricolor (VIOTR) [26]; dosage 80 g/ha) was 80%. For the same compound, the “Post-emergence action against PHBPU in %” value ([13]; dosage 80 g/ha) was 80%, the “Post-emergence action against PHBPU in %” value ([13]; dosage 320 g/ha) was 80% and the “Post-emergence action against AMARE in %” value [14, 29] was 80%. The “Pre-emergence action against AVEFA in %” value (Avena fatua (AVEFA) [27]) was 90%, the “Post-emergence action against DIGSA in %” value ([15]; 80 g/ha) was 80% and the “Post-emergence action against DIGSA in %” value ([15]; 320 g/ha) was 90%.

In the case of CCOC(=O)CN(C)S(=O)(=O)NC(=O)COc1nn(-c2ncccc2F)c(-c2ccc(F)nc2)c1Br [Example I-54], the “Post-emergence action against SETVI in %” value (Setaria viridis (SETVI) [17]; dosage 80 g/ha) is reported as 80%, the “Post-emergence action against ZEAMX in % (crop plant compatibility)” value (Zea mays (ZEAMX) [1]; 20 g/ha, ZEAMX, effect in comparison to untreated controls) is reported as 0% and the “Post-emergence action against ORYSA in %” value (Oryza sativa (ORYSA); 20 g/ha, effect vs untreated controls) is reported as 0%. For the same compound, the “Post-emergence action against ORYSA in %” value (Oryza sativa (ORYSA); [28]) was 0%, the “Pre-emergence action against DIGSA in %” value [2, 30] was 100% and the “Pre-emergence action against DIGSA in %” value ([2]; dosage 320 g/ha) was 100%. The “Pre-emergence action against MATIN in %” value [18] was 100%, the “Pre-emergence action against ZEAMX in %” value (Zea mays (ZEAMX) [3]) was 0% and the “Pre-emergence action against VERPE in %” value [20] was 100%. For the same compound, the “Pre-emergence action against SETVI in %” value (Setaria viridis (SETVI) [21]; dosage 320 g/ha) was 100%, the “Post-emergence action against ALOMY in %” value ([4]; 80 g/ha) was 90% and the “Pre-emergence action against AMARE in %” value [5] was 100%. The “Pre-emergence action against ALOMY” value [9] was 100%, the “Pre-emergence action against POLCO in %” value [10] was 90% and the “Post-emergence action against ABUTH in %” value ([24]; 80 g/ha) was 80%. For the same compound, the “Pre-emergence action against ECHCG in %” value [25] was 100%, the “Pre-emergence action against VIOTR in %” value (Viola tricolor (VIOTR) [26]; 320 g/ha, Viola tricolor) was 100% and the “Pre-emergence action against VIOTR in %” value (Viola tricolor (VIOTR) [26]; dosage 80 g/ha) was 100%. The “Post-emergence action against AMARE in %” value ([14]; 80 g/ha, visual rating about 3 weeks after treatment vs untreated controls (100% = plants have died, 0% = like control plants)) was 80%.
